US20260335299A1, “SUBSTITUTED OXOISOINDOLINYL PIPERIDINE-2,6-DIONE COMPOUND AS ANTICANCER AGENT” (BRISTOL-MYERS SQUIBB COMPANY, priority 2023, published 2026)

Target: IKZF1 Ikaros (Homo sapiens, UniProt Q13422+Q96SW2)
Assay: Jurkat Cellular Degradation Assay (Ikaros)
Type: cell-based
Design: endogenous in cells; host or cells: Jurkat cells
Details: Jurkat cells, 72 h
Method: Jurkat cells were plated at 80,000 cells/well in 40 μL RPMI+10% FBS in a 384-well cell culture plate prior to using acoustic dispensing technology for adding a compound of interest. Cell cultures were incubated for 72 h at 37° C. and 5% CO2. In order to facilitate analysis, cell cultures were spun down at 200 rpm for 5 min and the supernatant was discarded. After shaking the plate to dislodge the cell pellet, cells were resuspended in 50 μL of Fixation Buffer (eBioscience FoxP3 buffer set 00-5523-00) for 60 min at room temperature. After centrifuging and discarding the supernatant, cells were permeabilized with 50 μL of Permeabilization buffer (eBioscience FoxP3 buffer set 00-5523-00) for 10 min at room temperature. Following permeabilization, cells were spun down and the supernatant was replaced with 20 μL fluorescently labelled antibodies against Helios, Ikaros and Aiolos or corresponding Isotype controls in 1× Permeabilization buffer (Ikaros-Alexa488 [Biolegend, Cat #368408, 1:50], Helios-PE [CST, Cat #29360, 1:50], Aiolos-Alexa647 [Biolegend, Cat #371106 Biolegend, 1:25]) and staining reactions were incubated for 1 h at room temperature while protected from light. Subsequently, 30 μL of 1× Permeabilization buffer was added prior to centrifuging the cells and discarding the supernatant. Stained cells were resuspended in 25 μL of flow cytometry staining buffer [PBS+0.2% bovine serum albumin (BSA)] and analyzed using an Intellicyt Ique Plus flow cytometer.
Table A-1 lists the maximum observed degradation of the IKZF1 protein, IKZF2 protein, and IKZF3 protein as measured in the Jurkat Cellular Degradation assay. The results in Table A-I were rounded to two digits. In the Jurkat Cellular Degradation assay, a value of 100% indicated no detectable protein remaining or complete degradation of the protein; and a value of 0% indicated no detectable degradation of the protein by the test compound.

IKZF1 Ikaros, sequence (Q13422 whole entry): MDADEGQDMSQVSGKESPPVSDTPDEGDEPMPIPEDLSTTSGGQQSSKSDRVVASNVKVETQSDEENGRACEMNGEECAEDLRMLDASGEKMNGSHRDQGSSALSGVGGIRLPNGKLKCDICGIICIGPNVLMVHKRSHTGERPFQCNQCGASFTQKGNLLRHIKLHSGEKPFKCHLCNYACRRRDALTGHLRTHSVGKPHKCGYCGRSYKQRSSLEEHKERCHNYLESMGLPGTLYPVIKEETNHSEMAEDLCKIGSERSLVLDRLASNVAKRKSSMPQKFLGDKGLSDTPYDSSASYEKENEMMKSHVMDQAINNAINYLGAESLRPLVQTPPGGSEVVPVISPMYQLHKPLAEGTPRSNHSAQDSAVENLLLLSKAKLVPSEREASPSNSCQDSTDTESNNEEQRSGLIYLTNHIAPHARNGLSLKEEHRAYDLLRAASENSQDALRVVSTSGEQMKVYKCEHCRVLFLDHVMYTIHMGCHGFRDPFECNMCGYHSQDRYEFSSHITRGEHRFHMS
IKZF1 Ikaros, sequence (Q96SW2 whole entry): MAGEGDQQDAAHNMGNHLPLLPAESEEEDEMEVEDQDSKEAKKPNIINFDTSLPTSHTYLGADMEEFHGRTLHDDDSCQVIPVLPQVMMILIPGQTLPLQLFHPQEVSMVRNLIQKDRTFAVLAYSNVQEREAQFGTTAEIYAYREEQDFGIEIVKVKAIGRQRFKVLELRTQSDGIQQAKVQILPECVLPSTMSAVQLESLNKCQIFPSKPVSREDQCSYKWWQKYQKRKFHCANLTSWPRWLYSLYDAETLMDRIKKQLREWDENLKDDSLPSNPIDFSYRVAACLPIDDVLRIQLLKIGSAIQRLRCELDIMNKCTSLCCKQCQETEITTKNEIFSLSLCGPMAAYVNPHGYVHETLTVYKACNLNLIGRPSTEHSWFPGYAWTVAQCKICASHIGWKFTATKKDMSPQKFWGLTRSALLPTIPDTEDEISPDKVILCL
IKZF1 Ikaros, sequence (Q16531 whole entry partner): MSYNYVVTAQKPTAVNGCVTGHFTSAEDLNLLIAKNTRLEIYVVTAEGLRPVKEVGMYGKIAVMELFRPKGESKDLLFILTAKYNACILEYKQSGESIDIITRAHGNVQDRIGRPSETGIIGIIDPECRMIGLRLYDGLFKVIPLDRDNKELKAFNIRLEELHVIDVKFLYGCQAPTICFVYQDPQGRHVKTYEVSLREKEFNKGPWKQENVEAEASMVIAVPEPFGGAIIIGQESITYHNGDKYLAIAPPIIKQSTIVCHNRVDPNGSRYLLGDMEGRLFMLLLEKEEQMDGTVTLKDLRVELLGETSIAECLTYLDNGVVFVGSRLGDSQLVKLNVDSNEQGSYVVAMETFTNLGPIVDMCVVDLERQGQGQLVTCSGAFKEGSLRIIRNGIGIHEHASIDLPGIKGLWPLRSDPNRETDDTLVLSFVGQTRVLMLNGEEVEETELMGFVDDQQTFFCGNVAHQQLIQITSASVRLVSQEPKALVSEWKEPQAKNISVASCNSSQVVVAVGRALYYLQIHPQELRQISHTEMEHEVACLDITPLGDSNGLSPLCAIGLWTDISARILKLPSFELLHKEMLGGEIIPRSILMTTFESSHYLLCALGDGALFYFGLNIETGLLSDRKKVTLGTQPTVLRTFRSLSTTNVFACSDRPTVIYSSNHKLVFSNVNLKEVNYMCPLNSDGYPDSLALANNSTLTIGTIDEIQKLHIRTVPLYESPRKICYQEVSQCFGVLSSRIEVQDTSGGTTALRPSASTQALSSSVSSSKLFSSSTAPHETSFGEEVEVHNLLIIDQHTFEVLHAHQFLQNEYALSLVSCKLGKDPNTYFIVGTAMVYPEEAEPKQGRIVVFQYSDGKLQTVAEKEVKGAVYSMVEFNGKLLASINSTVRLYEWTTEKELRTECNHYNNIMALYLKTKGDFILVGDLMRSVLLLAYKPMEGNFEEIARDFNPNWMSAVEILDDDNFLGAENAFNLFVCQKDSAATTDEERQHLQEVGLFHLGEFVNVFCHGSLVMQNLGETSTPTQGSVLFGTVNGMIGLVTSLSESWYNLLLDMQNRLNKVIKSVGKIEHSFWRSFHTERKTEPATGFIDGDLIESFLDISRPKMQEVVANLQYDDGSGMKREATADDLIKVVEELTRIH

DC50 (concentration reducing protein level by 50% compared to DMSO alone): 90.9 nM
Dmax (human, read-out: IKZF1 Ikaros max % deg. observed): 69%
Compound: Nc1nc(-c2ccc3c(c2F)CN(C2CCC(=O)NC2=O)C3=O)ccc1CN1CC(C2CCC(F)(F)CC2)C1 (centres unmarked) [Example 1, 3-(5-(6-Amino-5-((3-(4,4-difluorocyclohexyl)azetidin-1-yl)methyl)pyridin-2-yl)-4-fluoro-1-oxoisoindolin-2-yl) piperidine-2,6-dione]
